Data as given in patent US5665700A, “Pharmaceutical formulations” (Skua Investments Limited, priority 1994, dated 1997).

tested on: reticulocyte counts; assay: Oral EPO study in normal male volunteers: reticulocyte counts; assay type: in vivo, human; conditions: Study Day 4, 10 IU/Kg intravenous infusion
Protocol: (§1) Eight healthy, normal male volunteers participated in this study. After overnight fasting, on Study Day 1 the subjects received medication as follows:
(§2) Blood samples were collected at time 0, 0.5, 1, 2, 3, 4, 6, 10 and 14 hours after the medication; reticulocyte counts (%) were made and plasma EPO levels were measured by radioimmunoassay.
(§3) On Day 2 and Day 3, each subject was given the assigned coded study medications at 08:00 a.m., 14:00 p.m. and 22:00 p.m. and, after an overnight fast, on Study Day 4, each subject was examined again after having been given the study medications as above.

Row | Substance | Reticulocyte counts
1 | Erythropoietin [EPO] | increased

tested on: not listed separately; assay: Oral EPO study in normal male volunteers: plasma EPO levels by radioimmunoassay; assay type: in vivo, human; conditions: Study Day 1, 10 IU/kg intravenous infusion
Protocol: as §1, §2, §3

Row | Substance | plasma RIA-measured EPO levels
2 | Erythropoietin [EPO] | markedly increased

tested on: not given; assay: not given; conditions: in vivo; cited from earlier work

Row | Substance | LD50 [mg/kg]
3 | POE(2) cetyl ether | 22000
4 | POE(2) oleyl ether | 25000
5 | POE(2) stearyl ether | > 25000
6 | POE(4) lauryl ether | 9000
7 | POE(4) sorbitan monostearate | > 40000
8 | POE(5) sorbitan monooleate | > 37000
9 | POE(23) lauryl ether | 9000
10 | Sorbitan monolaurate | 41000
11 | Sorbitan monooleate | > 40000
12 | Sorbitan monopalmitate | > 16000
13 | Sorbitan monostearate | 31000
14 | Sorbitan trioleate | > 40000
15 | Sorbitan tristearate | > 16000
